According to patent US9150528B2, “Compound having detrusor muscle-contracting activity and urethral sphincter muscle-relaxing activity” (ONO PHARMACEUTICAL CO., LTD., priority 2009, dated 2015):
Values belong to the molecule of their own block, whether it stands above or below them.

Key:
[1] = tested on: underactive bladder models; test: Residual urinary volumes and bladder capacities in underactive bladder models (cystometry); assay type: in vivo, rat; settings: 0.01 mg/kg, oral, underactive bladder model rats, versus normal group
Procedure: The underactive bladder models were constructed in accordance with the following procedure. Female Wistar rats (8 to 9 weeks age) were anesthetized by intraperitoneal administration of Somnopentyl (40 mg/kg), followed by dorsal shaving, and fixed in abdominal positions. Each of the dorsal areas was disinfected with chlorhexidine gluconate (5% hibitane liquid). The waist area was median-incised to expose the spinal column. After excision of the fifth lumbar spinous process, a silicone rubber was inserted into the sixth lumbar direction from a hole bored by a mini drill. For the purpose of avoiding infections, after completion of the surgical operation, benzylpenicillin potassium (25000 U/0.25 mL/body) was added dropwise to the incised area. The muscle and skin of the incised area were sutured with silk threads, and iodine tincture was applied to the sutured area. After the operation, maintenance of voiding was carried out by manual compressions three times daily. For the purpose of avoiding infections, potassium penicillin G (1.25 units/body) was administered subcutaneously. More than 5 days prior to cystometric evaluation, a catheter for cystometrogram was indwelled in the bladder. Anesthesia with sodium pentobarbital (40 mg/kg by intraperitoneal administration) and incision along the midline of the abdomen were carried out, followed by incision of the apex of the bladder. A catheter for cystometrogram filled with physiological saline was inserted into the bladder from a hole of the apical area, and fixed by ligation using silk suture threads. […]
The rats were anesthetized with ether and housed in a Bollmann cage 2 weeks after the construction of the models. To the front end of each of the bladder catheters, a pressure transducer via a three-way cock was connected, and the intravesical pressure was recorded using a strain pressure amplifier•recorder. […]
[…] After 1 hr, physiological saline was perfused into the bladder at a flow rate of 2 mL/h and voiding parameters (bladder capacity and residual urinary volume) were measured. […] Voiding parameters were calculated for each cystometry. […]

normal rats = test: Blood pressures and heart rates in normal rats; assay type: in vivo, rat; settings: oral; for effect on the blood pressure / increase in heart rate: 0.3 mg/kg
Procedure: The blood pressures and heart rates of female Wistar rats were measured in accordance with the following procedure. On the day of measurement, indwelling of catheters for blood pressure•heart rate measurement was carried out under anesthesia with ether. The back of the neck of each rat was incised; a feeding catheter (Atom Medical Corporation) filled with heparinized physiological saline was introduced from the back of the neck; the catheter was inserted into the common carotid artery; and the surgical incision was closed. The measurements were carried out in a Bollmann cage under the conscious state, and the evaluations were carried out after confirming that the individual parameters were stabilized. After confirming the stabilization of blood pressure and heart rate, the test compound which was prepared using injectable water containing equimolar NaOH was orally administered at a dose of 5 mL/kg.
The catheter drawn from the back of the neck was connected to a pressure transducer (DX-200, NIHON KOHDEN CORP.), and the blood pressures and heart rates were measured using an amplifier for pressure measurement (Gould Instrument). The blood pressures and heart rates were recorded using a recorder (LINEARCORDERWR3320, GRAPHTEC). For each individual, rates of increase and decrease in average blood pressure and heart rate before administration and 30, 60, 120, and 180 min after administration were calculated with respect to the values of each individual before administration. Changes in blood pressure and heart rate before and after administration of the test compound were evaluated.

[2] = tested on: spontaneously hypertensive rats; test: Blood pressure and heart rate measurement in hypertensive rats; assay type: in vivo, rat; settings: continuous intravenous
Procedure: The blood pressures and heart rates of male spontaneously hypertensive rats were measured. On the day of measurement, indwelling of catheters for blood pressure•heart rate measurement and subject substance administration was carried out under anesthesia with ether. The back of the neck of each rat was incised, a feeding catheter (Atom Medical Corporation) filled with heparinized physiological saline was introduced from the back of the neck; the catheter was inserted into the common carotid artery and internal jugular vein; and the surgical incision was closed. The measurements were conducted in a Bollmann cage under the conscious state and evaluations were carried out after confirming that the individual parameters were stabilized. After confirming the stabilization of blood pressure and heart rate, the test compound was continuously administered intravenously at a flow rate of 5 mL/kg/h for 30 min.
The catheter drawn from the back of the neck was connected to a pressure transducer (DX-200, NIHON KOHDEN CORP.), and the blood pressures and heart rates were measured using a blood pressure amplifier (Gould instrument). The blood pressures and heart rates were recorded on recording paper using a recorder (LINEARCORDER WR3320, GRAPHTEC). The blood pressures and heart rates were converted into values on the recording paper before administration and 2.5, 5, 10, 15, 30, 45 and 60 min after administration. For each individual, rates of increase and decrease in the parameters were evaluated relative to the value before administration (value at 0 min).

[3] = tested on: human lyophilized liver cells; test: Stability evaluation in lyophilized liver cells; assay type: in vitro ADME; settings: 37° C.
Procedure: KHEM5100 medium which includes human lyophilized liver cells after dissolving (final concentration of living cells: 1×10^6 cells/mL) and the test compound (acetonitrile or methanol solution, final concentration≦1%) was incubated at 37° C. Immediately after reaction and with the passage of reaction time, some portions were sampled from the medium. The concentrations of the test compound in the samples were measured by LC/MS/MS. The residual rate of the test compound relative to immediately after reaction was calculated by the following equation: Residual rate=the concentration of the test compound in the sample after reaction/the concentration of the test compound in the sample immediately after reaction×100(%) The residual rates were plotted on a single logarithmic scale against reaction time to calculate loss rate constants. The test was repeated (n=2), and the obtained values were averaged.

cynomolgus monkeys = test: Effects on cardiac function in anesthetized cynomolgus monkeys; assay type: in vivo, cynomolgus monkey; settings: continuous intravenous 30 min
Procedure: Cynomolgus monkeys were anesthetized with pentobarbital (at an initial dose of 20-30 mg/kg by intravenous administration; at a dose of 4-5 mg/kg/hr by intravenous continuous administration). A tracheal tube was inserted and experiments were carried out under artificial respiration (fresh air+pure oxygen, ventilatory volume: 10-15 mL/kg, ventilation frequency: 10-15 times/min). In the right lying position, the left thorax was opened between the fourth and fifth intercostal spaces. The […] (the origin of the left anterior descending artery or circumflex branch) and the origin of the ascending main artery were peeled off and transducers for blood flow measurement were located there. The blood flow rates were measured using an electronic blood flowmeter or an ultrasonic blood flowmeter. The blood pressures were measured using a pressure transducer in a state where a catheter was inserted into the right femoral artery. The left ventricular internal pressure was measured in a state where a catheter was inserted from the left carotid artery into the left ventricle. The electrocardiogram was measured using needle electrodes installed in the right armpit and the left thorax. After catheters for administration were inserted into the right and left cephalic veins and femoral veins, the test compound, pentobarbital (under anesthesia) or an aqueous solution (SOLITA T3 containing 1.2% NaHCO3) were administered therethrough. The test compound was continuously administered intravenously 30 min using a continuous infusion system. The blood pressure, left ventricular internal pressure, blood flow rate through the coronary artery and electrocardiogram data were simultaneously inputted to a PowerLab system (LabChart6, AD instruments) to measure/calculate average blood pressure, heart rate, average blood flow rate through the coronary artery, beat volume, stroke volume (beat volume/heart rate), maximum first deviation of the left ventricular internal pressure, total peripheral blood vessel resistance (average blood pressure/beat volume), cardiac performance (average blood pressure x beat volume) and double product (systolic arterial pressure x heart rate), which is indicative of myocardial oxygen consumption.
The averages of all evaluation parameters for 1 min were obtained before administration, immediately after administration, and 10 min, 20 min and 30 min after administration, and changes of the averages relative to the value measured before administration which is defined as 100% were calculated.

[4] = tested on: urinary excretion dysfunction models; test: Urinary excretion dysfunction models, maximal urinary flow rate; assay type: in vivo; settings: 60 ng/kg/h continuous intravenous, cynomolgus monkey urinary excretion dysfunction model
Text: Urinary excretion dysfunction models were constructed in accordance with the following procedure. After anesthesia of cynomolgus monkeys, the region from the suprapubic area to the abdominal area was shaved, followed by fixing in a dorsal position. The shaved region was disinfected and the four legs were fixed. Using an electrosurgical knife, the skin region from the suprapubic area to the umbilical area and the peritoneal membrane were sequentially incised, followed by damage to the pelvic nerve and removal of the uterus. After the surgical operation, viccillin-containing physiological saline was added dropwise to the incised area. The peritoneal membrane and skin of the incised area were sutured with silk threads and disinfected. Viccillin was administered for 7 consecutive days after surgery. Meloxicam was administered once daily for 7 consecutive days to manage pain in the perioperative period.
The cynomolgus monkeys were seated on monkey chairs, followed by retention of the hands and legs with strings. Injectable water was administered orally, and physiological saline and the test compound (60 ng/kg/h) were continuously administered intravenously to allow urination freely. The maximal urinary flow rate was measured using a urine weighing sensor.

male rats = test: Digestive symptoms after repeated oral administration; assay type: in vivo, rat; settings: 0.1 mg/kg oral, repeated for 4 days
Procedure: Using male rats, aged 6 weeks, general states of the rats were observed after repeating oral administration of the test compound at a dose of 0.1 mg/kg for 4 days. To a control, injectable water which is a medium was administered.

[5] = Parallel artificial membrane permeability assay (PAMPA); assay type: in vitro ADME; settings: sum of pH 5.0, 6.2 and 7.4, 25° C., read-out: membrane permeability coefficients (PAMPA(SUM))
Procedure: The permeability of the drugs through artificial membranes was measured by parallel artificial membrane permeability assay (PAMPA) under the following conditions. For the measurements, a PAMPA system (pION) was used. The membrane permeability was evaluated by measuring membrane permeability coefficients at three pH values and summing the values (PAMPA(SUM)(cm/sec)).
Lipid membrane: GIT-0 (pION)
Incubation temperature: 25° C.
Donor: 5% DMSO-containing buffer
Compound concentration: 50 μmol/L

bladder capacity [1]: significant decrease
Compound: C=C(C)CC[C@](C)(O)C/C=C/[C@H]1CCC(=O)[C@@H]1CCSc1nc(C(=O)O)cs1 [Comparative compound A, 2-[(2-{(1R,2R)-2-[(1E,4S)-4-hydroxy-4,7-dimethyl-1,7-octadien-1-yl]-5-oxocyclopentyl}ethyl)thio]-1,3-thiazole-4-carboxylic acid]
effect on the blood pressure (normal rats): tendency to increase | increase in blood pressure (normal rats; 1 mg/kg): about 10%

Residual rate ([3]; Reaction time 0 h): 100% | Residual rate ([3]; Reaction time 0.5 h): 91.5% | Residual rate ([3]; Reaction time 1 h): 78.1% | Residual rate ([3]; Reaction time 1 h, listed as comparative compound B): ≤ 80% | Residual rate ([3]; Reaction time 2 h): 62.3% | Residual rate ([3]; Reaction time 2 h, listed as comparative compound B): about 60% | effect on the cardiac functions (cynomolgus monkeys): inhibitory effect
Compound: CCCCC[C@](C)(O)C/C=C/[C@H]1CCC(=O)[C@@H]1CCSc1nc(C(=O)O)cs1 [Comparative compound B, 2-[(2-{(1R,2R)-2-[(1E,4S)-4-hydroxy-4-methyl-1-nonen-1-yl]-5-oxocyclopentyl}ethyl)thio]-1,3-thiazole-4-carboxylic acid, reference compound]
effect on the blood pressure (normal rats): tendency to decrease | increase in heart rate (normal rats): about 20% | reduction of blood pressure ([2]; 100 ng/kg/min): about 10% | reduction of blood pressure ([2]; 300 ng/kg/min): about 25% | improvement in maximal urinary flow rate over the vehicle group [4]: 27%

digestive symptoms such as soft feces (male rats): soft feces were observed
Compound: C[C@@](O)(C/C=C/[C@H]1CCC(=O)[C@@H]1CCSc1nc(C(=O)O)cs1)CCCC(F)(F)F [Comparative compound C, 2-[(2-{(1R,5R)-2-oxo-5-[(1E,4S)-8,8,8-trifluoro-4-hydroxy-4-methyl-1-octenyl]cyclopentyl}ethyl)thio]-1,3-thiazole-4-carboxylic acid]
effect on the blood pressure (normal rats): tendency to decrease | increase in heart rate (normal rats): about 20%

Papp at 4 hr, 50 μmol/L [5]: 0.6 ×10⁻⁶ cm/s
Compound: C[C@@](O)(C/C=C/[C@H]1COC(=O)N1CCSc1nc(C(=O)O)cs1)CCCC(F)(F)F [Comparative compound E, 2-[(2-{(4S)-2-oxo-4-[(1E,4S)-8,8,8-trifluoro-4-hydroxy-4-methyl-1-octenyl]-1,3-oxazolidin-3-yl}ethyl)sulfanyl]-1,3-thiazole-4-carboxylic acid, reference compound]
